Results reported in patent publication US20080269310A1, “Synergistic Combinations” (priority 2005, published 2008).
Like-named read-outs stand apart in the source and are kept apart here.

What was measured:
[1] = test system: carrageenan-induced thermal hyperalgesia; test: rat carrageenan footpad thermal hyperalgesia assay (Hargreaves test); assay type: in vivo; details: gabapentin 10-100 mg/kg SC, carprofen 1-10 mg/kg SC, combination in fixed 10:1 ratio
Method: The aim of this experiment was to characterize the anti-nociceptive and anti-inflammatory effects of gabapentin administered in combination with carprofen in the rat. In this example, gabapentin, carprofen, and the combination of gabapentin and carprofen were evaluated in a standard rat carrageenan footpad thermal hyperalgesia assay. This assay utilizes an extract of seaweed (carrageenan) that, when injected into the footpad of test animals, causes a sterile inflammation, thereby lowering the pain threshold. […]
Each data point represents the mean and standard error of mean. […] The theoretical dose-additive line for a 10:1 dose ratio was determined (dotted line) as described (Tallarida, 1992). The experimental determination of a 10:1 dose ratio was determined (gabapentin-carprofen mixture 10:1) and a shift to the left of the theoretical dose-additive line was found. […]
Dose-effect curves were first determined for (1) gabapentin by itself and (2) carprofen by itself. The ED50 value of each agent was determined, as was the time to peak effect. […]
Carrageenan-induced thermal hyperalgesia: Rats were acclimated to a testing chamber whose glass floor was maintained at 25° C. One hour later, a high intensity beam of light was focused through the glass on the ventral surface of each hind paw, and the latency to reflex withdrawal of the paw from the light beam was measured to the nearest 0.1 second. […]

[2] = test system: COX-2 isozyme compared to the COX-1 isozyme; details: dogs, cited from earlier work
[3] = test system: COX-2 isozyme compared to the COX-1 isozyme; details: cats; American Journal of Veterinary Research, 2001, 62, 11, 1755; cited from earlier work
[4] = test system: COX-2 isozyme compared to the COX-1 isozyme; details: horses; American Journal of Veterinary Research, 2001, 62, 11, 1755; cited from earlier work

Structure (SMILES)	antihyperalgesic action (in words) [1]	selectivity for the COX-2 isozyme compared to the COX-1 isozyme ([2]; American Journal Veterinary Research, 2000, 61, 7, 802) [fold]	selectivity for the COX-2 isozyme compared to the COX-1 isozyme ([2]; American Journal Veterinary Research, 2002, 63, 1, 91) [fold]	selectivity for the COX-2 isozyme compared to the COX-1 isozyme ([2]; American Journal of Veterinary Research, 2001, 62, 11, 1755) [fold]	selectivity for the COX-2 isozyme compared to the COX-1 isozyme ([2]; WO 98/50033) [fold]	selectivity for the COX-2 isozyme compared to the COX-1 isozyme [3] [fold]	selectivity for the COX-2 isozyme compared to the COX-1 isozyme [4] [fold]
CC(C(=O)O)c1ccc2c(c1)[nH]c1ccc(Cl)cc12 (stereo not drawn) [carprofen, 6-chloro-α-methyl-9H-carbazole-2-acetic acid]	antihyperalgesic actions	1.75	16.8	6.5	129	5.5	1.6
NCC1(CC(=O)O)CCCCC1 [gabapentin, 1-(aminomethyl)-cyclohexylacetic acid]	antihyperalgesic actions	–	–	–	–	–	–
